Measured values taken from ChEMBL document CHEMBL1201862, “PubChem BioAssay data set” (2004).
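Where inhibition never reached the appropriate level, the endpoint shown equals the highest concentration tested. Otherwise, values were interpolated linearly from a five-concentration, 48-hour dose response in 96-well plates. Abbreviation: GI50, concentration required for 50% inhibition of growth.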 Active and inactive are the calls of the source. Cut-off read from the data, not from the text of the source: active = GI50 up to about 1.1 µM and inactive = higher.

Legend:
Assay in all cases: inhibition of tumour cell growth, NCI panel, 48 h
UACC-257 = system: UACC-257
DU-145 = system: DU-145
NCI/ADR-RES = system: NCI/ADR-RES
MCF7 = system: MCF7
SF-268 = system: SF-268
SW-620 = system: SW-620
ACHN = system: ACHN
HOP-62 = system: HOP-62
COLO 205 = system: COLO 205
HT-29 = system: HT-29
OVCAR-3 = system: OVCAR-3
SF-539 = system: SF-539
Hs-578T = system: Hs-578T
SF-295 = system: SF-295
SN12C = system: SN12C
OVCAR-5 = system: OVCAR-5
SK-MEL-5 = system: SK-MEL-5
HCT-15 = system: HCT-15
NCI-H23 = system: NCI-H23
HCC 2998 = system: HCC 2998
KM12 = system: KM12
IGROV-1 = system: IGROV-1
CAKI-1 = system: CAKI-1
A549 = system: A549
SR = system: SR
EKVX = system: EKVX
NCI-H460 = system: NCI-H460
UO-31 = system: UO-31
TK-10 = system: TK-10
MDA-MB-231 = system: MDA-MB-231
LOX IMVI = system: LOX IMVI
SK-MEL-2 = system: SK-MEL-2
RPMI-8226 = system: RPMI-8226
T47D = system: T47D
OVCAR-8 = system: OVCAR-8
786-0 = system: 786-0
HL-60 = system: HL-60
BT-549 = system: BT-549
OVCAR-4 = system: OVCAR-4
CCRF-CEM = system: CCRF-CEM
SK-OV-3 = system: SK-OV-3
SNB-19 = system: SNB-19
NCI-H522 = system: NCI-H522
SNB-75 = system: SNB-75
U-251 = system: U-251
MDA-N = system: MDA-N
PC-3 = system: PC-3
Malme-3M = system: Malme-3M
NCI-H226 = system: NCI-H226
MOLT-4 = system: MOLT-4
MDA-MB-435 = system: MDA-MB-435
UACC-62 = system: UACC-62
A498 = system: A498
HCT-116 = system: HCT-116
M14 = system: M14
HOP-92 = system: HOP-92
SK-MEL-28 = system: SK-MEL-28

Measured: GI50

N#Cc1ccc(Nc2nc3[nH]cnc3c(=O)[nH]2)cc1
> 100 µM: HCT-15
inactive: UACC-257 > 100 µM | DU-145 > 100 µM | NCI/ADR-RES > 100 µM | MCF7 > 100 µM | SF-268 > 100 µM | SW-620 > 100 µM | ACHN > 100 µM | HOP-62 > 100 µM | COLO 205 > 100 µM | HT-29 > 100 µM | OVCAR-3 > 100 µM | SF-539 > 100 µM | Hs-578T > 100 µM | SF-295 > 100 µM | SN12C > 100 µM | OVCAR-5 > 100 µM | SK-MEL-5 > 100 µM | NCI-H23 > 100 µM | HCC 2998 > 100 µM | KM12 > 100 µM | IGROV-1 > 100 µM | CAKI-1 > 100 µM | A549 > 100 µM | SR > 100 µM | EKVX > 100 µM | NCI-H460 > 100 µM | UO-31 > 100 µM | TK-10 > 100 µM | MDA-MB-231 > 100 µM | LOX IMVI > 100 µM | SK-MEL-2 > 100 µM | RPMI-8226 > 100 µM | T47D > 100 µM | OVCAR-8 > 100 µM | 786-0 > 100 µM | HL-60 > 100 µM | BT-549 > 100 µM | OVCAR-4 > 100 µM | CCRF-CEM > 100 µM | SK-OV-3 > 100 µM | SNB-19 > 100 µM | NCI-H522 > 100 µM | SNB-75 > 100 µM | U-251 > 100 µM | MDA-N > 100 µM | PC-3 > 100 µM | Malme-3M > 100 µM | NCI-H226 > 100 µM | MOLT-4 > 100 µM | MDA-MB-435 > 100 µM | UACC-62 > 100 µM | A498 > 100 µM | HCT-116 > 100 µM | M14 > 100 µM | HOP-92 > 100 µM | SK-MEL-28 > 100 µM

C=CCN1C[C@H](C)N([C@H](c2ccc(C(=O)N(CC)CC)cc2)c2cccc(OC)c2)C[C@H]1C [SNC-80]
inactive: UACC-257 19.5 µM | DU-145 > 100 µM | NCI/ADR-RES 39.4 µM | MCF7 39.1 µM | SF-268 86.5 µM | SW-620 44.6 µM | ACHN 35.6 µM | HOP-62 74.1 µM | COLO 205 16.8 µM | HT-29 27.5 µM | OVCAR-3 18.3 µM | SF-539 51.5 µM | Hs-578T 26 µM | SF-295 19.9 µM | SN12C 64.1 µM | OVCAR-5 > 100 µM | SK-MEL-5 14 µM | NCI-H23 32.7 µM | KM12 50.8 µM | IGROV-1 35.2 µM | CAKI-1 > 100 µM | A549 54.3 µM | SR 39.5 µM | EKVX > 100 µM | UO-31 62.2 µM | TK-10 48 µM | MDA-MB-231 77.8 µM | SK-MEL-2 > 100 µM | RPMI-8226 29.1 µM | T47D 17 µM | OVCAR-8 > 100 µM | 786-0 > 100 µM | HL-60 24.8 µM | BT-549 41.1 µM | OVCAR-4 73.8 µM | SK-OV-3 75.2 µM | SNB-19 > 100 µM | NCI-H522 36.3 µM | U-251 44.9 µM | MDA-N 53.1 µM | PC-3 31.8 µM | Malme-3M 16.7 µM | NCI-H226 21.4 µM | MOLT-4 27.9 µM | MDA-MB-435 34.7 µM | UACC-62 34.1 µM | A498 13 µM | HCT-116 42.7 µM | M14 33.7 µM | HOP-92 5.11 µM | SK-MEL-28 69.3 µM
70.3 µM: HCT-15
